# Data reported in PubChem BioAssay (NCI).
# Several values for one entry are separate records, joined by “and”; a condition that tells them apart may be missing. Identical values can stand only once.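 96-well plates; 48 h exposure; 5 concentrations. Endpoints by linear interpolation between flanking doses. Not reached: highest tested concentration assigned. Here, GI50 denotes the concentration required for 50% inhibition of growth. TGI is the concentration that stops growth completely.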
# Assays:
# Test in all cases: DTP human tumour cell line panel, 48 h
# [1] = system: 786-0 renal
# [2] = system: A549 NSCLC
# [3] = system: ACHN renal
# [4] = system: CAKI-1 renal
# [5] = system: COLO 205 colon
# [6] = system: DU-145 prostate
# [7] = system: HCT-116 colon
# [8] = system: HCT-15 colon
# [9] = system: HL-60(TB) leukemia
# [10] = system: HOP-62 NSCLC
# [11] = system: HOP-92 NSCLC
# [12] = system: HS 578T breast
# [13] = system: HT29 colon
# [14] = system: IGROV1 ovarian
# [15] = system: K-562 leukemia
# [16] = system: KM12 colon
# [17] = system: LOX IMVI melanoma
# [18] = system: M14 melanoma
# [19] = system: MALME-3M melanoma
# [20] = system: MDA-MB-231 breast
# [21] = system: MDA-MB-435
# [22] = system: MDA-N
# [23] = system: MOLT-4 leukemia
# [24] = system: NCI-H226 lung
# [25] = system: NCI-H23 lung
# [26] = system: NCI-H460 lung
# [27] = system: NCI-H522 lung
# [28] = system: NCI/ADR-RES ovarian
# [29] = system: OVCAR-4 ovarian
# [30] = system: OVCAR-5 ovarian
# [31] = system: OVCAR-8 ovarian
# [32] = system: PC-3 prostate
# [33] = system: RPMI-8226 leukemia
# [34] = system: SF-268 CNS
# [35] = system: SF-539 CNS
# [36] = system: SK-MEL-2 melanoma
# [37] = system: SK-MEL-28 melanoma
# [38] = system: SK-MEL-5 melanoma
# [39] = system: SK-OV-3 ovarian
# [40] = system: SN12C renal
# [41] = system: SNB-19 CNS
# [42] = system: SNB-75 CNS
# [43] = system: SR leukemia
# [44] = system: SW-620 colon
# [45] = system: TK-10 renal
# [46] = system: U251 CNS
# [47] = system: UACC-257 melanoma
# [48] = system: UACC-62 melanoma
# [49] = system: UO-31 renal
# [50] = system: CCRF-CEM leukemia
# [51] = system: HCC-2998 colon
# [52] = system: OVCAR-3 ovarian
# [53] = system: SF-295 CNS
# [54] = system: T-47D breast
# [55] = system: A498 renal
# [56] = system: BT-549 breast
# [57] = system: EKVX NSCLC
structure (smiles),measurement,setting,value
O=C(OC1C(Oc2ccccc2COC(=O)C2(O)C=CCCC2=O)OC(CO)C(O)C1O)c1ccccc1 (centres undefined),TGI,[1],> 100000 nM
same,TGI,[2],38800 nM
same,TGI,[3],> 100000 nM
same,TGI,[4],28300 nM
same,TGI,[5],90300 nM
same,TGI,[6],> 100000 nM
same,TGI,[7],> 100000 nM
same,TGI,[8],> 100000 nM
same,TGI,[9],54600 nM
same,TGI,[10],> 100000 nM
same,TGI,[11],42500 nM
same,TGI,[12],56400 nM
same,TGI,[13],> 100000 nM
same,TGI,[14],> 100000 nM
same,TGI,[15],> 100000 nM
same,TGI,[16],> 100000 nM
same,TGI,[17],> 100000 nM
same,TGI,[18],> 100000 nM
same,TGI,[19],82100 nM
same,TGI,[20],> 100000 nM
same,TGI,[21],> 100000 nM
same,TGI,[22],> 100000 nM
same,TGI,[23],76900 nM
same,TGI,[24],> 100000 nM
same,TGI,[25],> 100000 nM
same,TGI,[26],> 100000 nM
same,TGI,[27],51100 nM
same,TGI,[28],> 100000 nM
same,TGI,[29],> 100000 nM
same,TGI,[30],> 100000 nM
same,TGI,[31],> 100000 nM
same,TGI,[32],> 100000 nM
same,TGI,[33],58100 nM
same,TGI,[34],93500 nM
same,TGI,[35],> 100000 nM
same,TGI,[36],> 100000 nM
same,TGI,[37],> 100000 nM
same,TGI,[38],17900 nM
same,TGI,[39],> 100000 nM
same,TGI,[40],> 100000 nM
same,TGI,[41],> 100000 nM
same,TGI,[42],60000 nM
same,TGI,[43],> 100000 nM
same,TGI,[44],> 100000 nM
same,TGI,[45],> 100000 nM
same,TGI,[46],> 100000 nM
same,TGI,[47],> 100000 nM
same,TGI,[48],> 100000 nM
same,TGI,[49],> 100000 nM
c1ccc(N=C(N2CCCCC2)N(CCN2CCCCC2)c2ccccc2)cc1,TGI,[2],14200 nM
same,TGI,[3],4580 nM
same,TGI,[4],14100 nM
same,TGI,[50],2030 nM
same,TGI,[5],11200 nM
same,TGI,[6],12700 nM
same,TGI,[51],5160 nM
same,TGI,[7],4180 nM
same,TGI,[8],12700 nM
same,TGI,[9],1020 nM
same,TGI,[10],3070 nM
same,TGI,[11],6200 nM
same,TGI,[12],3510 nM
same,TGI,[13],2930 nM
same,TGI,[14],12100 nM
same,TGI,[15],4270 nM
same,TGI,[17],2390 nM
same,TGI,[18],16100 nM
same,TGI,[20],11000 nM
same,TGI,[21],9010 nM
same,TGI,[22],2960 nM
same,TGI,[23],1740 nM
same,TGI,[24],16000 nM
same,TGI,[25],7170 nM
same,TGI,[26],2020 nM
same,TGI,[27],4580 nM
same,TGI,[28],4290 nM
same,TGI,[52],2510 nM
same,TGI,[29],17000 nM
same,TGI,[30],8010 nM
same,TGI,[31],11300 nM
same,TGI,[32],3720 nM
same,TGI,[33],627 nM
same,TGI,[53],2210 nM
same,TGI,[36],4640 nM
same,TGI,[37],8650 nM
same,TGI,[38],3300 nM
same,TGI,[39],14000 nM
same,TGI,[40],12500 nM
same,TGI,[41],14400 nM
same,TGI,[42],6440 nM
same,TGI,[43],2310 nM
same,TGI,[44],13700 nM
same,TGI,[54],9230 nM
same,TGI,[45],14200 nM
same,TGI,[46],5390 nM
same,TGI,[47],6610 nM
same,TGI,[49],8070 nM
[NH-]c1ncnc2c1N=C[N+]2=CC=CCO,TGI,[22],> 100000 nM
CCC(C)C1NC(=O)C(NC(=O)C(CC(C)C)N(C)C(=O)[C@@H]2C=CCN2C(=O)[C@H](C)O)C(C)OC(=O)[C@H](Cc2ccc(OC)cc2)N(C)C(=O)[C@@H]2CCCN2C(=O)[C@H](CC(C)C)NC(=O)C(C)C(=O)[C@H](C(C)C)OC(=O)CC1O (some centres undefined),TGI,[1],13.5 nM and 10.5 nM
same,TGI,[55],47.1 nM and 48.1 nM
same,TGI,[2],13.1 nM
same,TGI,[3],51.3 nM
same,TGI,[56],15.3 nM
same,TGI,[4],160 nM
same,TGI,[50],11.4 nM
same,TGI,[6],31.7 nM
same,TGI,[57],34.5 nM
same,TGI,[51],14.7 nM
same,TGI,[8],111 nM
same,TGI,[10],17.7 nM
same,TGI,[11],38.2 nM
same,TGI,[13],33.5 nM and 15.5 nM
same,TGI,[14],19.3 nM
same,TGI,[15],11.6 nM and 10.4 nM
same,TGI,[17],10.5 nM
same,TGI,[18],12.3 nM
same,TGI,[19],13.4 nM
same,TGI,[20],35.1 nM and 94.3 nM
same,TGI,[21],13.2 nM
same,TGI,[22],18.8 nM
same,TGI,[23],8.05 nM
same,TGI,[25],9.17 nM
same,TGI,[26],12.5 nM and 22.7 nM
same,TGI,[27],10.8 nM
same,GI50,[28],59.4 nM
same,TGI,[28],11700 nM
same,TGI,[52],28.2 nM and 11.2 nM
same,TGI,[29],8.81 nM and 11.2 nM
same,TGI,[30],73.8 nM
same,TGI,[31],38.6 nM
same,TGI,[32],27.1 nM
same,TGI,[33],20.1 nM
same,TGI,[34],10.9 nM and 18.6 nM
same,TGI,[53],20 nM
same,TGI,[35],4.67 nM
same,TGI,[37],5.67 nM
same,TGI,[38],10.2 nM
same,TGI,[39],31.7 nM
same,TGI,[40],15 nM
same,TGI,[41],55.6 nM
same,TGI,[42],12.6 nM
same,TGI,[43],> 100000 nM
same,TGI,[44],54.5 nM
same,TGI,[54],10.9 nM
same,TGI,[45],68.2 nM and 24.6 nM
same,TGI,[46],18 nM
same,TGI,[47],15.6 nM and 13.4 nM
same,TGI,[48],5 nM
same,TGI,[49],62.6 nM and 406 nM
